Data: ChEMBL document CHEMBL5532679, “Discovery and Characterization of RGH-122, a Potent, Selective, and Orally Bioavailable V1a Receptor Antagonist” (J Med Chem, 2024)
Blank lines part the entries; values can stand above or below the compound they belong to.

Columns and labels:
animal or person [1] = conditions: Mus musculus, NMRI, po, read-out: INH
in vitro [2] = conditions: NMRI, mouse, microsomes
[3] = Efflux ratio of apparent permeability across basolateral to apical side over apical to basolateral side in vinblastine treated human Caco-2 cells at 1 to 10 uM incubated for 15 to 60 hrs by HPLC analysis
in vitro [4] = conditions: Wistar, rat, microsomes
[5] = Apparent permeability of compound across apical to basal side in vinblastine treated human Caco-2 cells at 1 to 10 uM incubated for 15 to 60 mins by HPLC analysis
in vitro [6] = conditions: human
Vasopressin V1a receptor [7] = biological target: T1, Vasopressin V1a receptor (Homo sapiens, UniProt P37288)
T1 sequence (P37288 whole entry): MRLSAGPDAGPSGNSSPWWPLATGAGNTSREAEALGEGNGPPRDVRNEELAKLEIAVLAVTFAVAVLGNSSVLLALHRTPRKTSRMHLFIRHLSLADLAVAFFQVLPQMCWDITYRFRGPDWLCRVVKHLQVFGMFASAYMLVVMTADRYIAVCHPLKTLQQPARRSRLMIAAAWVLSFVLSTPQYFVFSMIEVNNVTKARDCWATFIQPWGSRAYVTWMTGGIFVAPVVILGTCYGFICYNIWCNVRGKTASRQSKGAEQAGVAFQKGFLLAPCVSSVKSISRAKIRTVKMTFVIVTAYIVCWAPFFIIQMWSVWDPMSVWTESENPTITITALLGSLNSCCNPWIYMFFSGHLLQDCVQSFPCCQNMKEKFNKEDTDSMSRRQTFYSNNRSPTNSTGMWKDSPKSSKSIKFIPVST
Description: Displacement of [3H]vasopressin from human V1A receptor assessed as inhibition constant by Cheng-Prusoff equation analysis

Vasopressin V1a receptor [8] = biological target: T1, Vasopressin V1a receptor; remark: listed apart in the source
Description: Antagonist activity at human V1A receptor expressed in human 1321N1 cells assessed as Ca2+ mobilization incubated for 15 mins by FLIPR calcium 5 assay

animal or person [9] = conditions: Mus musculus, NMRI, po, read-out: INH; remark: listed apart in the source
[10] = biological target: Voltage-gated inwardly rectifying potassium channel KCNH2 (Homo sapiens, UniProt Q12809)
Voltage-gated inwardly rectifying potassium channel KCNH2, sequence (Q12809 whole entry): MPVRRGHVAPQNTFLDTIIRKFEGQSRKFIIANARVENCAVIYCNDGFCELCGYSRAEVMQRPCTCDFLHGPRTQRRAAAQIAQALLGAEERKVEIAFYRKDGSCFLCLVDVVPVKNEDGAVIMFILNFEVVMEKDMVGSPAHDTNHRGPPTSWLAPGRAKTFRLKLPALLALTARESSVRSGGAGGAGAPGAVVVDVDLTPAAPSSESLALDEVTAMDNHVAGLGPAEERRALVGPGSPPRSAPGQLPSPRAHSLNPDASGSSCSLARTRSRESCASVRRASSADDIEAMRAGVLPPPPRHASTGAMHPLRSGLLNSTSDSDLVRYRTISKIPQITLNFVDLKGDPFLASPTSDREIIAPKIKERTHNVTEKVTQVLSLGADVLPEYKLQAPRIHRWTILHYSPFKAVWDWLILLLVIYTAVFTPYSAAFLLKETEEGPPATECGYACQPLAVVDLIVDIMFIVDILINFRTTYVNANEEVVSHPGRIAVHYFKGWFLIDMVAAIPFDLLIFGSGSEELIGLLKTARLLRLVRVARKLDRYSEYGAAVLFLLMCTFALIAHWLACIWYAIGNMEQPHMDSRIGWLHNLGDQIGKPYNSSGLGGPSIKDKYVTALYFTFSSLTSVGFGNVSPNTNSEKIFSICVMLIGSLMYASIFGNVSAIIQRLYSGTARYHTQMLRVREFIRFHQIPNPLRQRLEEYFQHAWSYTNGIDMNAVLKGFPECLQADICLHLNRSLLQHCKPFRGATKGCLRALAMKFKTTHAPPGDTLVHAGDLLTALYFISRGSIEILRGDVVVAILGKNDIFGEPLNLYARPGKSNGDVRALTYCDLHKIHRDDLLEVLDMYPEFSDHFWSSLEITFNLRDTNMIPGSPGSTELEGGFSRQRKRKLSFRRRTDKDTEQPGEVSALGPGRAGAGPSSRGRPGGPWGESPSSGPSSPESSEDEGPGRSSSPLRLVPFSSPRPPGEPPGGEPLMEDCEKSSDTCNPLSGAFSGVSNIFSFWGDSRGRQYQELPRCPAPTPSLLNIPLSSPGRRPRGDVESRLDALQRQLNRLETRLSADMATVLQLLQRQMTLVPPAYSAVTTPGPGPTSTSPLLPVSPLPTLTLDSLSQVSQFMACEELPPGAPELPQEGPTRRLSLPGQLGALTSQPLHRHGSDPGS
Description: Inhibition of hERG expressed in CHO cells at -80 mV holding potential incubated for 7 to 10 mins by automated patch clamp method

Compound: FC(F)(F)c1ccc2c(c1)CC1(Cc3nnc([C@H]4CC[C@H](Oc5ccccn5)CC4)n3-2)OCCO1
inhibition in vivo at 10 mg/kg (animal or person [1]): 76%

Compound: Brc1ccc2c(c1)CC1(Cc3nnc([C@H]4CC[C@H](Oc5ccccn5)CC4)n3-2)OCCO1
inhibition in vivo at 10 mg/kg (animal or person [1]): 99%

Compound: Fc1ccc2c(c1)CC1(Cc3nnc([C@H]4CC[C@H](Oc5ccccn5)CC4)n3-2)OCCO1
inhibition in vivo at 10 mg/kg (animal or person [1]): 49%

Compound: CC(C)N[C@@H]1Cc2cc(Cl)ccc2-n2c(nnc2[C@H]2CC[C@H](Oc3ccccn3)CC2)C1
IC50 [10]: 4000 nM

Compound: NC1CCc2cc(Cl)ccc2-n2c1nnc2[C@H]1CC[C@H](Oc2ccccn2)CC1 (some centres undefined)
Ki (Vasopressin V1a receptor [7]): 8 nM | IC50 (Vasopressin V1a receptor [8]): 42 nM

Compound: N#Cc1ccc2c(c1)CC1(Cc3nnc([C@H]4CC[C@H](Oc5ccccn5)CC4)n3-2)OCCO1
inhibition in vivo at 10 mg/kg (animal or person [1]): 69%

Compound: Clc1ccc2c(c1)CCCc1nnc([C@H]3CC[C@H](Oc4ccccn4)CC3)n1-2
inhibition in vivo at 10 mg/kg (animal or person [1]): 42% | microsomal CLint at 1 µM (in vitro [6]; liver microsomes): 29 µL/min/mg

Compound: O=C([C@H]1CC[C@H](c2nnc3n2-c2ccc(Cl)cc2CC2(C3)OCCO2)CC1)N1CCOCC1
microsomal CLint at 1 µM (in vitro [2]): 3 µL/min/mg | efflux ratio at 10 µM [3]: 29 | microsomal CLint at 1 µM (in vitro [4]): 3 µL/min/mg | Papp A→B at 10 µM [5]: 1.3 ×10⁻⁶ cm/s

Compound: OCC1Cc2cc(Cl)ccc2-n2c(nnc2[C@H]2CC[C@H](Oc3ccccn3)CC2)C1 (some centres undefined)
IC50 [10]: 21400 nM

Compound: OC[C@H]1Cc2cc(Cl)ccc2-n2c(nnc2[C@H]2CC[C@H](Oc3ccccn3)CC2)C1
IC50 [10]: 23000 nM

Compound: CC(C)NC1Cc2cc(Br)ccc2-n2c(nnc2[C@H]2CC[C@H](Oc3ccccn3)CC2)C1 (some centres undefined)
inhibition in vivo at 3 mg/kg (animal or person [9]): 64%

Compound: OC[C@@H]1Cc2cc(Cl)ccc2-n2c(nnc2[C@H]2CC[C@H](Oc3ccccn3)CC2)C1
IC50 [10]: 19000 nM

Compound: FC[C@@H]1Cc2cc(Cl)ccc2-n2c(nnc2[C@H]2CC[C@H](Oc3ccccn3)CC2)C1
IC50 [10]: 12000 nM

Compound: CNC1Cc2cc(Cl)ccc2-n2c(nnc2[C@H]2CC[C@H](Oc3ccccn3)CC2)C1 (some centres undefined)
microsomal CLint at 1 µM (in vitro [2]): 24 µL/min/mg | efflux ratio at 10 µM [3]: 1.8 | microsomal CLint at 1 µM (in vitro [4]): 19 µL/min/mg | Papp A→B at 10 µM [5]: 40 ×10⁻⁶ cm/s | microsomal CLint at 1 µM (in vitro [6]; microsomes): 12 µL/min/mg

Compound: CC(C)NC1Cc2cc(F)ccc2-n2c(nnc2[C@H]2CC[C@H](Oc3ccccn3)CC2)C1 (some centres undefined)
inhibition in vivo at 3 mg/kg (animal or person [9]): 58%

Compound: CC(C)NC1Cc2cc(C#N)ccc2-n2c(nnc2[C@H]2CC[C@H](Oc3ccccn3)CC2)C1 (some centres undefined)
inhibition in vivo at 3 mg/kg (animal or person [9]): 56%

Compound: c1ccc(O[C@H]2CC[C@H](c3nnc4n3-c3ccccc3CC3(C4)OCCO3)CC2)nc1
inhibition in vivo at 10 mg/kg (animal or person [1]): 49%

Compound: CCN[C@@H]1Cc2cc(Cl)ccc2-n2c(nnc2[C@H]2CC[C@H](Oc3ccccn3)CC2)C1
microsomal CLint at 1 µM (in vitro [2]): 16 µL/min/mg | efflux ratio at 10 µM [3]: 1.4 | microsomal CLint at 1 µM (in vitro [4]): 15 µL/min/mg | Papp A→B at 10 µM [5]: 24 ×10⁻⁶ cm/s | IC50 [10]: 3500 nM | microsomal CLint at 1 µM (in vitro [6]; microsomes): 21 µL/min/mg

Compound: FC[C@H]1Cc2cc(Cl)ccc2-n2c(nnc2[C@H]2CC[C@H](Oc3ccccn3)CC2)C1
IC50 [10]: 13000 nM

Compound: CC(C)NC1Cc2cc(Cl)ccc2-n2c(nnc2[C@H]2CC[C@H](Oc3ccccn3)CC2)C1 (mixture of isomers)
IC50 [10]: 3700 nM

Compound: CN1CCN(CC2Cc3cc(Cl)ccc3-n3c(nnc3[C@H]3CC[C@H](Oc4ccccn4)CC3)C2)CC1 (some centres undefined)
microsomal CLint at 1 µM (in vitro [2]): 6 µL/min/mg | efflux ratio at 10 µM [3]: 7.5 | Ki (Vasopressin V1a receptor [7]): 0.8 nM | microsomal CLint at 1 µM (in vitro [4]): 3 µL/min/mg | Papp A→B at 10 µM [5]: 8.6 ×10⁻⁶ cm/s | IC50 (Vasopressin V1a receptor [8]): 7.1 nM | microsomal CLint at 1 µM (in vitro [6]; microsomes): 11 µL/min/mg

Compound: CC(C)N[C@H]1Cc2cc(Cl)ccc2-n2c(nnc2[C@H]2CC[C@H](Oc3ccccn3)CC2)C1
IC50 [10]: 3800 nM

Second part, led by results:

microsomal CLint at 1 µM (in vitro [2]): 14 µL/min/mg | efflux ratio at 10 µM [3]: 4.4 | microsomal CLint at 1 µM (in vitro [4]): 17 µL/min/mg | Papp A→B at 10 µM [5]: 24 ×10⁻⁶ cm/s | microsomal CLint at 1 µM (in vitro [6]; microsomes): 16 µL/min/mg
Compound: Clc1ccc2c(c1)CC(NC1COC1)Cc1nnc([C@H]3CC[C@H](Oc4ccccn4)CC3)n1-2 (some centres undefined)

microsomal CLint at 1 µM (in vitro [2]): 37 µL/min/mg | efflux ratio at 10 µM [3]: 1.3 | microsomal CLint at 1 µM (in vitro [4]): 36 µL/min/mg | Papp A→B at 10 µM [5]: 23 ×10⁻⁶ cm/s | microsomal CLint at 1 µM (in vitro [6]; microsomes): 34 µL/min/mg
Compound: CN(C)C1Cc2cc(Cl)ccc2-n2c(nnc2[C@H]2CC[C@H](Oc3ccccn3)CC2)C1 (some centres undefined)

efflux ratio at 10 µM [3]: 6.8 | Ki (Vasopressin V1a receptor [7]): 1.3 nM | Papp A→B at 10 µM [5]: 9.3 ×10⁻⁶ cm/s | IC50 (Vasopressin V1a receptor [8]): 6.9 nM
Compound: CNC1CCc2nnc([C@H]3CC[C@H](Oc4ccccn4)CC3)n2-c2ccc(Cl)cc21 (some centres undefined)

microsomal CLint at 1 µM (in vitro [2]): 27 µL/min/mg | efflux ratio at 10 µM [3]: 0.8 | microsomal CLint at 1 µM (in vitro [4]): 15 µL/min/mg | Papp A→B at 10 µM [5]: 7 ×10⁻⁶ cm/s
Compound: Clc1ccc2c(c1)CC1(Cc3nnc([C@H]4CC[C@H](Oc5ccccn5)CC4)n3-2)OCCCO1
inhibition in vivo at 3 mg/kg (animal or person [9]): 69% | inhibition in vivo at 10 mg/kg (animal or person [1]): 79%

microsomal CLint at 1 µM (in vitro [2]): 37 µL/min/mg | microsomal CLint at 1 µM (in vitro [4]): 26 µL/min/mg | microsomal CLint at 1 µM (in vitro [6]; microsomes): 26 µL/min/mg
Compound: FC1(F)CCC(NC2Cc3cc(Cl)ccc3-n3c(nnc3[C@H]3CC[C@H](Oc4ccccn4)CC3)C2)CC1 (some centres undefined)

microsomal CLint at 1 µM (in vitro [2]): 5 µL/min/mg | efflux ratio at 10 µM [3]: 3.5 | microsomal CLint at 1 µM (in vitro [4]): 56 µL/min/mg | Papp A→B at 10 µM [5]: 23 ×10⁻⁶ cm/s
Compound: O[C@@H]1Cc2cc(Cl)ccc2-n2c(nnc2[C@H]2CC[C@H](Oc3ccccn3)CC2)C1
inhibition in vivo at 3 mg/kg (animal or person [9]): 75% | IC50 [10]: > 30000 nM | inhibition in vivo at 10 mg/kg (animal or person [1]): 84%

microsomal CLint at 1 µM (in vitro [2]): 7 µL/min/mg | microsomal CLint at 1 µM (in vitro [4]): 18 µL/min/mg | Papp A→B at 10 µM [5]: 20 ×10⁻⁶ cm/s
Compound: O[C@H]1Cc2cc(Cl)ccc2-n2c(nnc2[C@H]2CC[C@H](Oc3ccccn3)CC2)C1
inhibition in vivo at 3 mg/kg (animal or person [9]): 84% | IC50 [10]: > 30000 nM | inhibition in vivo at 10 mg/kg (animal or person [1]): 92%

microsomal CLint at 1 µM (in vitro [2]): 8 µL/min/mg | Ki (Vasopressin V1a receptor [7]): 2.8 nM | microsomal CLint at 1 µM (in vitro [4]): 6 µL/min/mg | IC50 (Vasopressin V1a receptor [8]): 55 nM | microsomal CLint at 1 µM (in vitro [6]; microsomes): 20 µL/min/mg
Compound: CC(C)NCC1Cc2cc(Cl)ccc2-n2c(nnc2[C@H]2CC[C@H](Oc3ccccn3)CC2)C1 (some centres undefined)

microsomal CLint at 1 µM (in vitro [2]): 2 µL/min/mg | microsomal CLint at 1 µM (in vitro [4]): 6 µL/min/mg | microsomal CLint at 1 µM (in vitro [6]; microsomes): 0.2 µL/min/mg
Compound: CN(C)CC(=O)NC1Cc2cc(Cl)ccc2-n2c(nnc2[C@H]2CC[C@H](Oc3ccccn3)CC2)C1 (mixture of isomers)

microsomal CLint at 1 µM (in vitro [2]): 14 µL/min/mg | efflux ratio at 10 µM [3]: 29 | microsomal CLint at 1 µM (in vitro [4]): 11 µL/min/mg | Papp A→B at 10 µM [5]: 3 ×10⁻⁶ cm/s | microsomal CLint at 1 µM (in vitro [6]; microsomes): 2 µL/min/mg
Compound: NC1Cc2cc(Cl)ccc2-n2c(nnc2[C@H]2CC[C@H](Oc3ccccn3)CC2)C1 (mixture of isomers)

microsomal CLint at 1 µM (in vitro [2]): 39 µL/min/mg | Ki (Vasopressin V1a receptor [7]): 0.5 nM | microsomal CLint at 1 µM (in vitro [4]): 47 µL/min/mg | IC50 (Vasopressin V1a receptor [8]): 4.7 nM | microsomal CLint at 1 µM (in vitro [6]; microsomes): 42 µL/min/mg
Compound: CN(C)CC1Cc2cc(Cl)ccc2-n2c(nnc2[C@H]2CC[C@H](Oc3ccccn3)CC2)C1 (some centres undefined)

microsomal CLint at 1 µM (in vitro [2]): 35 µL/min/mg | Ki (Vasopressin V1a receptor [7]): 3.1 nM | microsomal CLint at 1 µM (in vitro [4]): 25 µL/min/mg | IC50 (Vasopressin V1a receptor [8]): 15 nM | microsomal CLint at 1 µM (in vitro [6]; microsomes): 48 µL/min/mg
Compound: NCC1Cc2cc(Cl)ccc2-n2c(nnc2[C@H]2CC[C@H](Oc3ccccn3)CC2)C1 (some centres undefined)

microsomal CLint at 1 µM (in vitro [2]): 11 µL/min/mg | efflux ratio at 10 µM [3]: 44 | microsomal CLint at 1 µM (in vitro [4]): 36 µL/min/mg | Papp A→B at 10 µM [5]: 2.6 ×10⁻⁶ cm/s | microsomal CLint at 1 µM (in vitro [6]; microsomes): 4 µL/min/mg
Compound: N[C@H]1Cc2cc(Cl)ccc2-n2c(nnc2[C@H]2CC[C@H](Oc3ccccn3)CC2)C1

microsomal CLint at 1 µM (in vitro [2]): 6 µL/min/mg | efflux ratio at 10 µM [3]: 7.1 | Ki (Vasopressin V1a receptor [7]): 2.3 nM | microsomal CLint at 1 µM (in vitro [4]): 8 µL/min/mg | Papp A→B at 10 µM [5]: 8.1 ×10⁻⁶ cm/s | IC50 (Vasopressin V1a receptor [8]): 15 nM | microsomal CLint at 1 µM (in vitro [6]; microsomes): 14 µL/min/mg
Compound: Clc1ccc2c(c1)CC(CNC1CCOCC1)Cc1nnc([C@H]3CC[C@H](Oc4ccccn4)CC3)n1-2 (some centres undefined)

microsomal CLint at 1 µM (in vitro [2]): 101 µL/min/mg | Ki (Vasopressin V1a receptor [7]): 0.4 nM | microsomal CLint at 1 µM (in vitro [4]): 145 µL/min/mg | IC50 (Vasopressin V1a receptor [8]): 2.1 nM | microsomal CLint at 1 µM (in vitro [6]; microsomes): 134 µL/min/mg
Compound: Clc1ccc2c(c1)CC(CN1CCOCC1)Cc1nnc([C@H]3CC[C@H](Oc4ccccn4)CC3)n1-2 (some centres undefined)

microsomal CLint at 1 µM (in vitro [2]): 9 µL/min/mg | efflux ratio at 10 µM [3]: 35 | microsomal CLint at 1 µM (in vitro [4]): 7 µL/min/mg | Papp A→B at 10 µM [5]: 2.8 ×10⁻⁶ cm/s | microsomal CLint at 1 µM (in vitro [6]; microsomes): 5 µL/min/mg
Compound: N[C@@H]1Cc2cc(Cl)ccc2-n2c(nnc2[C@H]2CC[C@H](Oc3ccccn3)CC2)C1
IC50 [10]: 16700 nM

microsomal CLint at 1 µM (in vitro [2]): 15 µL/min/mg | efflux ratio at 10 µM [3]: 1.1 | microsomal CLint at 1 µM (in vitro [4]): 9 µL/min/mg | Papp A→B at 10 µM [5]: 41 ×10⁻⁶ cm/s | microsomal CLint at 1 µM (in vitro [6]; microsomes): 24 µL/min/mg
Compound: Clc1ccc2c(c1)CC(NC1CCOCC1)Cc1nnc([C@H]3CC[C@H](Oc4ccccn4)CC3)n1-2 (some centres undefined)
